# Source: PubChem BioAssay (NCI)
#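 Results reflect a 48-hour exposure of cells in 96-well plates to compound at five concentrations. At the GI50, growth is halved. TGI marks complete inhibition of growth.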
# What was measured:
# Assay in all cases: inhibition of tumour cell growth, NCI panel, 48 h
# 786-0 renal = tested on: 786-0 renal
# A498 renal = tested on: A498 renal
# A549 NSCLC = tested on: A549 NSCLC
# ACHN renal = tested on: ACHN renal
# BT-549 breast = tested on: BT-549 breast
# CAKI-1 renal = tested on: CAKI-1 renal
# CCRF-CEM leukemia = tested on: CCRF-CEM leukemia
# COLO 205 colon = tested on: COLO 205 colon
# DU-145 prostate = tested on: DU-145 prostate
# HCC-2998 colon = tested on: HCC-2998 colon
# HCT-116 colon = tested on: HCT-116 colon
# HCT-15 colon = tested on: HCT-15 colon
# HL-60(TB) leukemia = tested on: HL-60(TB) leukemia
# HOP-62 NSCLC = tested on: HOP-62 NSCLC
# HOP-92 NSCLC = tested on: HOP-92 NSCLC
# HS 578T breast = tested on: HS 578T breast
# HT29 colon = tested on: HT29 colon
# IGROV1 ovarian = tested on: IGROV1 ovarian
# K-562 leukemia = tested on: K-562 leukemia
# KM12 colon = tested on: KM12 colon
# LOX IMVI melanoma = tested on: LOX IMVI melanoma
# M14 melanoma = tested on: M14 melanoma
# MALME-3M melanoma = tested on: MALME-3M melanoma
# MCF7 breast = tested on: MCF7 breast
# MDA-MB-231 breast = tested on: MDA-MB-231 breast
# MDA-MB-435 = tested on: MDA-MB-435
# MOLT-4 leukemia = tested on: MOLT-4 leukemia
# NCI-H226 lung = tested on: NCI-H226 lung
# NCI-H23 lung = tested on: NCI-H23 lung
# NCI-H460 lung = tested on: NCI-H460 lung
# NCI-H522 lung = tested on: NCI-H522 lung
# NCI/ADR-RES ovarian = tested on: NCI/ADR-RES ovarian
# OVCAR-3 ovarian = tested on: OVCAR-3 ovarian
# OVCAR-4 ovarian = tested on: OVCAR-4 ovarian
# OVCAR-5 ovarian = tested on: OVCAR-5 ovarian
# OVCAR-8 ovarian = tested on: OVCAR-8 ovarian
# PC-3 prostate = tested on: PC-3 prostate
# RPMI-8226 leukemia = tested on: RPMI-8226 leukemia
# RXF 393 renal = tested on: RXF 393 renal
# SF-268 CNS = tested on: SF-268 CNS
# SF-295 CNS = tested on: SF-295 CNS
# SF-539 CNS = tested on: SF-539 CNS
# SK-MEL-2 melanoma = tested on: SK-MEL-2 melanoma
# SK-MEL-28 melanoma = tested on: SK-MEL-28 melanoma
# SK-MEL-5 melanoma = tested on: SK-MEL-5 melanoma
# SK-OV-3 ovarian = tested on: SK-OV-3 ovarian
# SN12C renal = tested on: SN12C renal
# SNB-19 CNS = tested on: SNB-19 CNS
# SNB-75 CNS = tested on: SNB-75 CNS
# SW-620 colon = tested on: SW-620 colon
# T-47D breast = tested on: T-47D breast
# TK-10 renal = tested on: TK-10 renal
# U251 CNS = tested on: U251 CNS
# UACC-257 melanoma = tested on: UACC-257 melanoma
# UACC-62 melanoma = tested on: UACC-62 melanoma
# UO-31 renal = tested on: UO-31 renal
smiles,measurement,setting,value
O=C1/C(=C\c2ccc(Cl)cc2)CN(C(=S)Nc2ccccc2)C/C1=C\c1ccc(Cl)cc1,GI50,786-0 renal,351 nM
same,TGI,786-0 renal,1230 nM
same,GI50,A498 renal,1660 nM
same,TGI,A498 renal,3150 nM
same,GI50,A549 NSCLC,415 nM
same,TGI,A549 NSCLC,10300 nM
same,GI50,ACHN renal,1220 nM
same,TGI,ACHN renal,2650 nM
same,GI50,BT-549 breast,600 nM
same,TGI,BT-549 breast,1770 nM
same,GI50,CAKI-1 renal,2560 nM
same,TGI,CAKI-1 renal,> 29200 nM
same,GI50,CCRF-CEM leukemia,453 nM
same,TGI,CCRF-CEM leukemia,13200 nM
same,GI50,COLO 205 colon,507 nM
same,TGI,COLO 205 colon,1840 nM
same,GI50,DU-145 prostate,1110 nM
same,TGI,DU-145 prostate,3480 nM
same,GI50,HCC-2998 colon,755 nM
same,TGI,HCC-2998 colon,1940 nM
same,GI50,HCT-116 colon,213 nM
same,TGI,HCT-116 colon,438 nM
same,GI50,HCT-15 colon,283 nM
same,TGI,HCT-15 colon,3270 nM
same,GI50,HL-60(TB) leukemia,1620 nM
same,TGI,HL-60(TB) leukemia,7850 nM
same,GI50,HOP-62 NSCLC,269 nM
same,TGI,HOP-62 NSCLC,696 nM
same,GI50,HOP-92 NSCLC,1850 nM
same,TGI,HOP-92 NSCLC,4830 nM
same,GI50,HS 578T breast,3000 nM
same,TGI,HS 578T breast,23300 nM
same,GI50,HT29 colon,277 nM
same,TGI,HT29 colon,719 nM
same,GI50,IGROV1 ovarian,953 nM
same,TGI,IGROV1 ovarian,2870 nM
same,GI50,K-562 leukemia,356 nM
same,TGI,K-562 leukemia,7670 nM
same,GI50,KM12 colon,261 nM
same,TGI,KM12 colon,645 nM
same,GI50,LOX IMVI melanoma,203 nM
same,TGI,LOX IMVI melanoma,432 nM
same,GI50,M14 melanoma,1700 nM
same,TGI,M14 melanoma,4200 nM
same,GI50,MALME-3M melanoma,2220 nM
same,TGI,MALME-3M melanoma,4860 nM
same,GI50,MCF7 breast,292 nM
same,TGI,MCF7 breast,1150 nM
same,GI50,MDA-MB-231 breast,735 nM
same,TGI,MDA-MB-231 breast,5440 nM
same,GI50,MDA-MB-435,1090 nM
same,TGI,MDA-MB-435,3010 nM
same,GI50,MOLT-4 leukemia,1740 nM
same,TGI,MOLT-4 leukemia,13700 nM
same,GI50,NCI-H226 lung,1640 nM
same,TGI,NCI-H226 lung,4580 nM
same,GI50,NCI-H23 lung,1300 nM
same,TGI,NCI-H23 lung,3920 nM
same,GI50,NCI-H460 lung,471 nM
same,TGI,NCI-H460 lung,2150 nM
same,GI50,NCI-H522 lung,1820 nM
same,TGI,NCI-H522 lung,3840 nM
same,GI50,NCI/ADR-RES ovarian,2540 nM
same,TGI,NCI/ADR-RES ovarian,18400 nM
same,GI50,OVCAR-3 ovarian,437 nM
same,TGI,OVCAR-3 ovarian,1490 nM
same,GI50,OVCAR-4 ovarian,343 nM
same,TGI,OVCAR-4 ovarian,2770 nM
same,GI50,OVCAR-5 ovarian,1470 nM
same,TGI,OVCAR-5 ovarian,3490 nM
same,GI50,OVCAR-8 ovarian,527 nM
same,TGI,OVCAR-8 ovarian,> 47900 nM
same,GI50,PC-3 prostate,371 nM
same,TGI,PC-3 prostate,2090 nM
same,GI50,RPMI-8226 leukemia,136 nM
same,TGI,RPMI-8226 leukemia,646 nM
same,GI50,RXF 393 renal,397 nM
same,TGI,RXF 393 renal,1130 nM
same,GI50,SF-268 CNS,754 nM
same,TGI,SF-268 CNS,2260 nM
same,GI50,SF-295 CNS,389 nM
same,TGI,SF-295 CNS,1730 nM
same,GI50,SF-539 CNS,427 nM
same,TGI,SF-539 CNS,1540 nM
same,GI50,SK-MEL-2 melanoma,2570 nM
same,TGI,SK-MEL-2 melanoma,5800 nM
same,GI50,SK-MEL-28 melanoma,1790 nM
same,TGI,SK-MEL-28 melanoma,3390 nM
same,GI50,SK-MEL-5 melanoma,1660 nM
same,TGI,SK-MEL-5 melanoma,3120 nM
same,GI50,SK-OV-3 ovarian,2030 nM
same,TGI,SK-OV-3 ovarian,4860 nM
same,GI50,SN12C renal,544 nM
same,TGI,SN12C renal,1890 nM
same,GI50,SNB-19 CNS,661 nM
same,TGI,SNB-19 CNS,1950 nM
same,GI50,SNB-75 CNS,1250 nM
same,TGI,SNB-75 CNS,3820 nM
same,GI50,SW-620 colon,298 nM
same,TGI,SW-620 colon,1040 nM
same,GI50,T-47D breast,1100 nM
same,TGI,T-47D breast,3610 nM
same,GI50,TK-10 renal,1960 nM
same,TGI,TK-10 renal,4480 nM
same,GI50,U251 CNS,212 nM
same,TGI,U251 CNS,484 nM
same,GI50,UACC-257 melanoma,1830 nM
same,TGI,UACC-257 melanoma,3780 nM
same,GI50,UACC-62 melanoma,1200 nM
same,TGI,UACC-62 melanoma,2920 nM
same,GI50,UO-31 renal,1210 nM
same,TGI,UO-31 renal,2560 nM
